# Literature values as cited in US9241912B2, “Agrochemical formulation comprising encapsulated pesticide” (priority 2011, dated 2016).
# Settings: at 20° C.
row,Structure (SMILES),solubility in water
1,"CCCC(=O)C(C)(C)C [2,2-dimethyl-3-hexanone]",2800 µg/mL
2,"CCCC(C)(C)C(C)=O [3,3-dimethyl-2-hexanone]",2700 µg/mL
3,"CC(C)C(=O)C(C)(C)C [2,2,4-trimethyl-3-pentanone]",5500 µg/mL
4,CCCC(=O)CC(C)C [2-methyl-4-heptanone],1700 µg/mL
5,CCC(=O)CC(C)C [5-methyl-3-hexanone],5200 µg/mL
6,CCCC(=O)C(C)CC (stereo not shown) [3-methyl-4-heptanone],1900 µg/mL
7,"CCCCC(=O)CCC [Example 4-octanone, 4-octanone]",1000 µg/mL
8,"CCC(C)(C)C(C)=O [3,3-dimethyl-2-pentanone]",7300 µg/mL
9,CCC(CC)C(C)=O [3-ethyl-2-pentanone],4600 µg/mL
10,CCC(C)CC(C)=O (stereo not shown) [4-methyl-2-hexanone],4300 µg/mL
11,CCCCC(=O)C(C)C [2-methyl-3-heptanone],1400 µg/mL
12,"CCCCC(C)=O [Example 2-hexanone, 2-hexanone]",14000 µg/mL
13,CCC(C)(CC)C(C)=O [3-ethyl-3-methyl-2-pentanone],1800 µg/mL
14,"CCC(C)C(C)C(C)=O (stereo not shown) [3,4-dimethyl-2-hexanone]",1400 µg/mL
15,CC1=CC(=O)CC(C)(C)C1 [isoporone],15000 µg/mL
16,CCCC(=O)C(C)C [2-methyl-3-hexanone],6300 µg/mL
17,"CCC(=O)C(C)(C)CC [4,4-dimethyl-3-hexanone]",2500 µg/mL
18,CCCC(C)C(C)=O (stereo not shown) [3-methyl-2-hexanone],4100 µg/mL

# Second part, the compound after the results:
row,solubility in water,Structure (SMILES)
1,800 µg/mL,CC(=O)CCCC(C)C [6-methyl-2-heptanone]
2,6700 µg/mL,"CC(=O)C(C)C(C)C (stereo not shown) [3,4-dimethyl-2-pentanone]"
3,10400 µg/mL,"CCC(=O)C(C)(C)C [2,2-dimethyl-3-pentanone]"
4,900 µg/mL,CCCCC(C)C(C)=O (stereo not shown) [3-methyl-2-heptanone]
5,1000 µg/mL,CCC(C)CCC(C)=O (stereo not shown) [5-methyl-2-heptanone]
6,10400 µg/mL,"CC(=O)CC(C)(C)C [4,4-dimethyl-2-pentanone]"
7,5200 µg/mL,CCC(=O)C(C)CC (stereo not shown) [4-methyl-3-hexanone]
8,1700 µg/mL,CCC(C(C)=O)C(C)C (stereo not shown) [3-ethyl-4-methyl-2-pentanone]
9,900 µg/mL,CCC(=O)CCC(C)C [6-methyl-3-heptanone]

# Same assay, conditions: not suitable as solvent B
row,Structure (SMILES),solubility in water (in words)
1,CC(C)=O [acetone],completely miscible with water
